# Measured values published in patent US20140038920A1, “TFEB PHOSPHORYLATION INHIBITORS AND USES THEREOF” (FONDAZIONE TELETHON, priority 2011, published 2014).
# Key:
# [1] = tested on: TFEB; experiment: TFEB nuclear localization in starved HeLa cells overexpressing TFEB, re-stimulated with media plus supplements or inhibitors (nuclear fractionation, Flag blot, immunofluorescence); format: cell-based; conditions: for TFEB nuclear translocation compared to starved media alone: EBSS media supplemented with growth factor or cytokine (FIG. 2f)
# Excerpt: (A) Scatter Plot graphs displaying the logarithmic value of the fold change differences in the relative expression levels of 51 autophagy-related genes in HeLa cells cultured in different conditions. X-axis=control group. Y-axis=treated group. Circles represent genes with increased (red) or decreased (green) fold change. Comparisons were as indicated. (B) Chromatin immunoprecipitation (ChIP) analysis. […] Values were normalized to the input and plotted as relative enrichment over a mock control. Experiments were performed in triplicate. (C) qPCR analysis of TFEB-target gene expression in normal, starved, and in TFEB-siRNA starved cells. GAPDH and HPRT represents housekeeping genes, while ATG10, ATG9A and ATG4D represent control genes (non-TFEB target genes). (D-F) HeLa cells stably overexpressing TFEB were left untreated or nutrient starved for 4 h. (D) Five fields containing 50-100 cells/each were analyzed for TFEB nuclear localization. […] (E) Cells were subjected to nuclear/cytosolic fractionation and blotted with Flag antibody. H3 and tubulin were used as nuclear and cytosolic markers, respectively. (F) Nuclear fractions were blotted with Flag and H3 (loading control) antibodies. (G) Western blot analysis of Flag, tubulin and H3 in nuclear extracts prepared from normal, starved and starved/stimulated with normal media cells for 1 h (normal) or pretreated with AP-2 (AKT inhibitor), Rapamycin (mTOR inhibitor) and U0126 (MEK inhibitor) 1 h prior to media stimulation. Total extracts were used to verify the efficiency of the inhibitors. […] Starvation was performed where indicated. (All error bars represent standard deviations. T-test (unpaired) p value (*)<0.05, (**)<0.01)
# Cytosolic and nuclear fractions were subjected to Flag immunoblotting. […] Error bars represent standard deviations.
# Cells were seeded at 50% of confluence in 6 well dishes and serum starved overnight (ON). Normal medium was added the following day either in presence of DMSO or kinase inhibitors. Subcellular fractionation was carried out as previously reported.
# To identify the mechanism of starvation-induced activation of TFEB, the applicants analyzed its subcellular localization and post-translational modifications in starved cells.
# [2] = tested on: TFEB; experiment: High content TFEB-GFP nuclear translocation assay; format: cell-based; conditions: Homo sapiens; TFEB-GFP HeLa cells, 3 h, ten concentrations 2.54 nM to 50 μM (FIG. 19D); read-out: EC50, TFEB nuclear translocation
# Protocol: (§1) Immunoblotting of protein extracts isolated from HeLa cells treated overnight, as indicated. Membranes were probed with antibodies for p-T202/Y204-ERK1/2, ERK1/2, p-T389-S6K, and S6K to measure ERK and mTORC1 activities. […] FLAG immunoblotting of cytosolic and nuclear fractions isolated from TFEB-3×FLAG HeLa cells cultured in amino acid-free media and subsequently stimulated as indicated for at least 3 h. Correct subcellular fractionation was verified with H3 and tubulin antibodies. […] After 3 h at 37° C. in RPMI medium containing one of each of the compounds, the cells were washed, fixed, and stained with DAPI and photographed by using confocal automated microscopy (Opera high content system, Perkin Elmer). […] Scale bars represent 30 μm. […] The EC50 for each compound was calculated using Prism software (see Materials and Methods for details). […] Antibody used were p-T389-S6K, S6K and FLAG. […] HeLa cells stably expressing Flag-3×TFEB were infected with lentiviruses encoding a Short hairpin (Sh-) RNA targeting luciferase (control) or RagC and RagD mRNAs. […] TFEB localization was detected with a FLAG antibody, whereas tubulin and H3 were used as controls for the cytosolic and nuclear fraction, respectively; levels of S6K phosphorylation were used to test RagC and RagD knockdown efficiency.
# After 3 hours at 37° C. in RPMI medium cells were washed, fixed, and stained with DAPI. For the acquisition of the images, ten pictures per each well of the 384-well plate were taken by using confocal automated microscopy (Opera high content system, Perkin Elmer). A dedicated script was developed to perform the analysis of TFEB localization on the different images (Acapella software, Perkin Elmer). The script calculates the ratio value resulting from the average intensity of nuclear TFEB-GFP fluorescence divided by the average of the cytosolic intensity of TFEB-GFP fluorescence. The results were normalized using negative (RPMI medium) and positive (HBSS starvation) control samples in the same plate. The data are represented by the percentage of nuclear translocation at the different concentrations of each compound using Prism software (GraphPad software). The EC50 for each compound was calculated using non-linear regression fitting (Prism software).
# In order to find additional small molecules able to induce the translocation of TFEB from the cytosol to the nucleus, the applicants developed a cell-based high content assay using stable HeLa cells overexpressing TFEB fused to the green fluorescent protein (TFEB-GFP). In the assay imaging of treated cells is acquired by an automated confocal microscope (OPERA system) and the analysis of those images with Acapella image software calculates the ratio of the average of fluorescence intensity of TFEB-GFP between the cytosol and nucleus of the cell (see Materials and methods for details). […] They tested ten concentrations for each inhibitor.
# [3] = tested on: TFEB; experiment: TFEB molecular weight shift and localization in TFEB-3xFLAG HeLa cells stimulated with amino-acid rich medium plus inhibitor (FIG. 19B); format: cell-based; conditions: Torin 1 250 nM, Rapamycin 2.5 μM, U0126 50 μM
# Protocol: FIG. 19 mTORC1 regulates TFEB. (A) Lysosomal stress inhibits mTOR signaling. Immunoblotting of protein extracts isolated from HeLa cells treated overnight, as indicated. Membranes were probed with antibodies for p-T202/Y204-ERK1/2, ERK1/2, p-T389-S6K, and S6K to measure ERK and mTORC1 activities. […] FLAG immunoblotting of cytosolic and nuclear fractions isolated from TFEB-3×FLAG HeLa cells cultured in amino acid-free media and subsequently stimulated as indicated for at least 3 h. Correct subcellular fractionation was verified with H3 and tubulin antibodies. (C, D) Effects and dose—response curves of ERK and mTOR inhibitors on TFEB nuclear translocation. […] After 3 h at 37° C. in RPMI medium containing one of each of the compounds, the cells were washed, fixed, and stained with DAPI and photographed by using confocal automated microscopy (Opera high content system, Perkin Elmer). (C) Representative images of test concentrations for each compound. Scale bars represent 30 μm. […] The EC50 for each compound was calculated using Prism software (see Materials and Methods for details). (E) Amino acids induce TFEB molecular weight shift. Immunoblotting of protein extracts isolated from HEK-293T cells transfected either TFEB-3×FLAG or with an empty vector were nutrient starved and stimulated for 50 minutes with amino acids (a.a.). Antibody used were p-T389-S6K, S6K and FLAG. (F) Rag knockdown induces TFEB nuclear translocation. HeLa cells stably expressing Flag-3×TFEB were infected with lentiviruses encoding a Short hairpin (Sh-) RNA targeting luciferase (control) or RagC and RagD mRNAs. […] TFEB localization was detected with a FLAG antibody, whereas tubulin and H3 were used as controls for the cytosolic and nuclear fraction, respectively; levels of S6K phosphorylation were used to test RagC and RagD knockdown efficiency.
# (§2) The mouse anti-TFEB monoclonal antibody was purchased from My Biosource catalogue No. MBS 120432. To generate anti-pS142 specific antibodies, rabbits were immunized with the following peptide coupled to KLH: AGNSAPN{pSer}[…]. Following the fourth immunization, rabbits were sacrificed and the serum was collected. Non-phosphospecific antibodies were depleted from the serum by circulation through a column containing the nonphosphorylated antigene. The phosphospecific antibodies were subsequently purified using a column containing the phosphorylated peptide. Cells were lysed with M-PER buffer (Thermo) containing protease and phosphatase inhibitors (Sigma); nuclear/cytosolic fractions were isolated as above described. Proteins were separated by SDS-PAGE (Invitrogen; reduced NuPAGE 4-12% Bis-tris Gel, MES SDS buffer). If needed, the gel was stained using 20 ml Imperial Protein Stain (Thermo Fisher) at room temperature for 1 h and de-stained with water. […]
# [4] = tested on: long-lived protein degradation in TFEB-overexpressing cells; experiment: Degradation of long-lived proteins (FIG. 8); format: cell-based; conditions: 3-MA added during 4 h incubation
# Protocol: FIG. 8 TFEB increases autophagic proteolysis. Rate of long-lived protein degradation in TFEB-overexpressing, TFEB-depleted and control cells in either normal or starved condition. 3-methyl adenine (3MA) was added where indicated (Error bars represent standard deviations. p value (*)<0.05).
# Sub-confluent cells were incubated with L-U^14C-serine for 20 h and chased for 1 h with cold media to degrade short-lived proteins. Subsequently cells were incubated with either normal media or starvation media (eventually in the presence of 3-MA) for 4 h. The rate of long-lived protein degradation was calculated from the ratio of soluble radioactivity in the media to that insoluble in the acid-precipitable cell pellet.
# The applicants next measured the rate of delivery of autophagosome to lysosome using an RFP-GFP tandem tagged LC3 protein (9), which discriminates early autophagic organelles (GFP-positive/mRFP-positive) from acidified autolysosomes (GFP-negative/mRFP-positive), as the GFP signal (but not the mRFP) is quenched inside acidic compartments (9). […] Functional evidence of TFEB role in the regulation of autophagy came from the observation that degradation of long-lived proteins was enhanced by TFEB overexpression, and reduced by TFEB knock-down. This enhancement was abolished by the autophagy inhibitor 3-methyl adenine (3-MA) (10) (FIG. 8).
# [5] = tested on: mTORC1; experiment: mTORC1 activity by level of p-P70S6K in HeLa cells treated overnight (FIG. 19A); format: cell-based
# Protocol: as §1
# [6] = tested on: TFEB; experiment: Lysosomal stress: TFEB-3xFLAG nuclear/cytoplasmic fractionation immunoblot in HeLa and HEK-293T cells (FIG. 18); format: cell-based; conditions: treated overnight; chloroquine 100 μM, Salicylihalamide A 2 μM
# Excerpt: FIG. 18 Lysosomal stress induces TFEB nuclear translocation. […] Histone 3 (H3) and tubulin were used as nuclear and cytosolic markers, respectively. Blots are representative of triplicate experiments.
# as §2
# TFEB subcellular localization was then analysed in HeLa and HEK-293T cells transiently transfected with a TFEB-3×FLAG plasmid and treated overnight with inhibitors of lysosomal function.
# [7] = molecular target: mTOR (Mus musculus, UniProt Q9JLN9); conditions: primary hepatocytes treated overnight
# Excerpt: (§3) Subsequently, cells were lysed and protein extracts were immunoblotted with the indicated antibodies. […] Quantitative PCR (qPCR) of TFEB target genes in primary hepatocytes from control (flox/flox) and Tcfeb−/− (flox/flox; alb-Cre) mice. […] The expression levels are shown as % increased expression of the treated versus the corresponding untreated samples. Values represent means±s.d. of three independent hepatocyte preparations (three mice/genotype). Student's t-test (two tailed) *P-value ≦0.05.
# [8] = tested on: TFEB target genes; experiment: qPCR of TFEB target genes in primary hepatocytes (FIG. 21B, C); format: cell-based, mouse; conditions: hepatocytes from TFEB conditional knockout mice (Tcfebflox/flox; alb-CRE)
# Excerpt: as §3
molecule,measurement,setting,value
LIF: cytokine supplemented to EBSS media,TFEB nuclear translocation compared to starved media alone,[1],Almost no effect
N#CC(=C(/N)Sc1ccccc1N)/C(C#N)=C(\N)Sc1ccccc1N [U0126],EC50,[2],80.4 µM
same,TFEB nuclear localization,"[1]; starved cells stimulated with normal medium supplemented with kinase inhibitor (FIG. 2g, 11b)","TFEB nuclear localization, at level similar to starvation"
same,TFEB molecular weight shift induced by nutrients,[3],only a partial TFEB molecular weight shift
Cn1cnc(N)c2ncnc1-2 [3-methyl adenine],enhancement of long-lived protein degradation by TFEB overexpression,[4],abolished
CC/C=C\C=C/C(=O)N/C=C/C[C@H]1C[C@@H](O)[C@@H](C)C/C=C/Cc2cccc(O)c2C(=O)O1 [Salicylihalamide A],mTORC1 activity as level of p-P70S6K,[5],inhibited mTORC1 activity
same,nuclear translocation of exogenously expressed TFEB,[6],induced nuclear translocation
"EGF: growth factor supplemented to EBSS media (NSDSECPLSHDGYCLHDGVCMYIEALDKYACNCVVGYIGERCQYRDLKWWELR; UniProt P01133 971-1023, looked up)",TFEB nuclear translocation compared to starved media alone,[1],significant inhibition
CCN(CC)CCCC(C)Nc1ccnc2cc(Cl)ccc12 (stereo not shown) [chloroquine],mTORC1 activity as level of p-P70S6K,[5],inhibited mTORC1 activity
same,nuclear translocation of exogenously expressed TFEB,[6],induced nuclear translocation
same,mTOR activity as level of p-S6K,[7],inhibited mTOR
same,transcriptional response of TFEB target genes versus control hepatocytes,[8],significantly blunted
insulin,TFEB nuclear translocation compared to starved media alone,[1],significant inhibition
